Consider two compounds from PMC7143582, “Functional Characterization of Sex Pheromone Receptors in the Fall Armyworm (Spodoptera frugiperda)” (Insects, 2020).

Each structure is given as a SMILES string.

In one experiment the test system is T1, SfruOR16.
T1 construct: gene OR16; full-length ORF; with SfruORco
As to the kind of experiment: two-electrode voltage clamp, Xenopus oocytes co-expressing SfruOR16/ORco, dose-response. The experiment is classed as cell-based, Spodoptera frugiperda.

For a further experiment, the system named is T2, SfruOR13.
T2 construct: gene OR13; full-length ORF; with SfruORco
As to the kind of experiment: two-electrode voltage clamp, Xenopus oocytes co-expressing SfruOR13/ORco, dose-response. The experiment is classed as cell-based, Spodoptera frugiperda.

For the compound `CCCC/C=C\CCCCCCCCO` [Z9-14:OH, (Z)-9-tetradecen-1-ol], the EC50 in the experiment on SfruOR16 turned out to be 16.9 µM. `CCCC/C=C\CCCCCCCCOC(C)=O` [Z9-14:OAc] displayed an EC50 with SfruOR13 of 6.08 µM.
